Results reported in patent publication US9738634B2, “Heterocyclic amide compound and herbicide” (SYNGENTA PARTICIPATIONS AG, priority 2013, dated 2017).

How the values were obtained:
Assay type in all cases: in vivo
oval-leafed pondweed [1] = experiment: Test Example 2: weedkilling efficacy, growth period weed treatment in the submerged state; C: oval-leafed pondweed; details: treatment dosage 252 g/ha
Method in brief: (§1)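 First, alluvial soil in pots is flooded to 4 cm and mixed seed is sown. Next, plants grow in a greenhouse at 25 to 30° C until the 1-2 leaf stage. Then diluted emulsion is applied onto the water surface at the given g/ha rate, and injury is assessed after 3 weeks.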

Italian ryegrass [2] = experiment: Test Example 3: weedkilling efficacy through soil treatment; I: Italian ryegrass; details: treatment dosage 315 g/ha
Method in brief: (§2)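 Crop and weed responses were judged three weeks after a uniform surface spray of the water-diluted emulsion at the given g/ha rate. Seeds sat beneath about 1.5 cm of sterilized diluvial soil, and boxes stood in a greenhouse at 25 to 30° C.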

bulrush [3] = experiment: Test Example 1: weedkilling efficacy, preemergent weed treatment in the submerged state; B: bulrush; details: treatment dosage 252 g/ha
Method in brief: (§3)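 Alluvial soil in Wagner pots flooded to 4 cm; barnyard grass, bulrush and oval-leafed pondweed seeds sown, then 2.5-leaf rice seedlings transplanted. Same day, emulsified compound diluted in water to set g/ha dosages and applied to water surface; greenhouse 25–30 °C, effect scored by criteria after 3 weeks.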

barnyard grass [4] = experiment: Test Example 2: weedkilling efficacy, growth period weed treatment in the submerged state; A: barnyard grass; details: treatment dosage 252 g/ha
Method in brief: as §1

chickweed [5] = experiment: Test Example 4: weedkilling efficacy by foliar treatment; N: chickweed; details: treatment dosage 315 g/ha
Protocol: (§4) Testing of Weedkilling Efficacy by Foliar Treatment
(§5) Sterilized diluvial soil was introduced into 21 cm long, 13 cm wide, 7 cm deep plastic boxes, and seeds of crabgrass, green foxtail, barnyard grass, wild oat, black-grass, Italian ryegrass, common wind-grass, Indian mallow, redroot pigweed, fig-leafed goosefoot, chickweed, catchweed, birds-eye speedwell, corn, soybean, rice, wheat, beet and rapeseed were each spot-sown, and covered with about 1.5 cm of soil, then the plants were grown in a greenhouse at 25 to 30° C.
(§6) After they had grown for 14 days, emulsions of compounds of the present invention prepared according to compounding example 2 were diluted with water to give the specified dosages, and applied uniformly onto the stem and leaf parts with a small sprayer. 3 weeks after the pesticide treatment the effect on each type of plant was investigated on the basis of the assessment criteria of test example 1.
(§7) A: barnyard grass, B: bulrush, C: oval-leafed pondweed, D: crabgrass, E: green foxtail, F: barnyard grass, G: wild oat, H: black-grass, I: Italian ryegrass, J: common wind-grass, K: Indian mallow, L: redroot pigweed, M: fig-leafed goosefoot, N: chickweed, O: catchweed, p: birds-eye speedwell, a: transplanted rice, b: directly sown rice, c: corn, d: soybean, e: wheat, f: beet, g: rapeseed
(§8) Further, pesticide dosage (g/ha) indicates the concentration regulated such that treatment was with only the stated number of grams (g), when calculated per hectare (ha).

fig-leafed goosefoot [6] = experiment: Test Example 3: weedkilling efficacy through soil treatment; M: fig-leafed goosefoot; details: treatment dosage 315 g/ha
Method in brief: as §2

black-grass [7] = experiment: Test Example 3: weedkilling efficacy through soil treatment; H: black-grass; details: treatment dosage 315 g/ha
Method in brief: as §2

beet [8] = experiment: Test Example 4: foliar treatment, effect on crop; f: beet; details: treatment dosage 315 g/ha
Protocol: as §4, §5, §6, §7, §8

birds-eye speedwell [9] = experiment: Test Example 4: weedkilling efficacy by foliar treatment; p: birds-eye speedwell; details: treatment dosage 315 g/ha
Protocol: as §4, §5, §6, §7, §8

barnyard grass [10] = experiment: Test Example 1: weedkilling efficacy, preemergent weed treatment in the submerged state; A: barnyard grass; details: treatment dosage 252 g/ha
Method in brief: as §3

chickweed [11] = experiment: Test Example 3: weedkilling efficacy through soil treatment; N: chickweed; details: treatment dosage 315 g/ha
Method in brief: as §2

bulrush [12] = experiment: Test Example 2: weedkilling efficacy, growth period weed treatment in the submerged state; B: bulrush; details: treatment dosage 252 g/ha
Method in brief: as §1

Indian mallow [13] = experiment: Test Example 4: weedkilling efficacy by foliar treatment; K: Indian mallow; details: treatment dosage 315 g/ha
Protocol: as §4, §5, §6, §7, §8

catchweed = experiment: Test Example 4: weedkilling efficacy by foliar treatment; O: catchweed; details: treatment dosage 315 g/ha
Protocol: as §4, §5, §6, §7, §8

black-grass [14] = experiment: Test Example 4: weedkilling efficacy by foliar treatment; H: black-grass; details: treatment dosage 315 g/ha
Protocol: as §4, §5, §6, §7, §8

green foxtail [15] = experiment: Test Example 3: weedkilling efficacy through soil treatment; E: green foxtail; details: treatment dosage 315 g/ha
Method in brief: as §2

crabgrass [16] = experiment: Test Example 4: weedkilling efficacy by foliar treatment; D: crabgrass; details: treatment dosage 315 g/ha
Protocol: as §4, §5, §6, §7, §8

green foxtail [17] = experiment: Test Example 4: weedkilling efficacy by foliar treatment; E: green foxtail; details: treatment dosage 315 g/ha
Protocol: as §4, §5, §6, §7, §8

corn [18] = experiment: Test Example 4: foliar treatment, effect on crop; c: corn; details: treatment dosage 315 g/ha
Protocol: as §4, §5, §6, §7, §8

crabgrass [19] = experiment: Test Example 3: weedkilling efficacy through soil treatment; D: crabgrass; details: treatment dosage 315 g/ha
Method in brief: as §2

Italian ryegrass [20] = experiment: Test Example 4: weedkilling efficacy by foliar treatment; I: Italian ryegrass; details: treatment dosage 315 g/ha
Protocol: as §4, §5, §6, §7, §8

wheat = experiment: Test Example 4: foliar treatment, effect on crop; e: wheat; details: treatment dosage 315 g/ha
Protocol: as §4, §5, §6, §7, §8

directly sown rice [21] = experiment: Test Example 3: soil treatment, effect on crop; b: directly sown rice; details: treatment dosage 315 g/ha
Method in brief: as §2

beet [22] = experiment: Test Example 3: soil treatment, effect on crop; f: beet; details: treatment dosage 315 g/ha
Method in brief: as §2

transplanted rice = experiment: Test Example 1: preemergent weed treatment in the submerged state, effect on crop; a: transplanted rice; details: treatment dosage 252 g/ha
Method in brief: as §3

soybean [23] = experiment: Test Example 4: foliar treatment, effect on crop; d: soybean; details: treatment dosage 315 g/ha
Protocol: as §4, §5, §6, §7, §8

soybean [24] = experiment: Test Example 3: soil treatment, effect on crop; d: soybean; details: treatment dosage 315 g/ha
Method in brief: as §2

fig-leafed goosefoot [25] = experiment: Test Example 4: weedkilling efficacy by foliar treatment; M: fig-leafed goosefoot; details: treatment dosage 315 g/ha
Protocol: as §4, §5, §6, §7, §8

directly sown rice [26] = experiment: Test Example 4: foliar treatment, effect on crop; b: directly sown rice; details: treatment dosage 315 g/ha
Protocol: as §4, §5, §6, §7, §8

oval-leafed pondweed [27] = experiment: Test Example 1: weedkilling efficacy, preemergent weed treatment in the submerged state; C: oval-leafed pondweed; details: treatment dosage 252 g/ha
Method in brief: as §3

corn [28] = experiment: Test Example 3: soil treatment, effect on crop; c: corn; details: treatment dosage 315 g/ha
Method in brief: as §2

redroot pigweed [29] = experiment: Test Example 4: weedkilling efficacy by foliar treatment; L: redroot pigweed; details: treatment dosage 315 g/ha
Protocol: as §4, §5, §6, §7, §8

birds-eye speedwell [30] = experiment: Test Example 3: weedkilling efficacy through soil treatment; p: birds-eye speedwell; details: treatment dosage 315 g/ha
Method in brief: as §2

Indian mallow [31] = experiment: Test Example 3: weedkilling efficacy through soil treatment; K: Indian mallow; details: treatment dosage 315 g/ha
Method in brief: as §2

redroot pigweed [32] = experiment: Test Example 3: weedkilling efficacy through soil treatment; L: redroot pigweed; details: treatment dosage 315 g/ha
Method in brief: as §2

CC1=C(c2cccs2)C(=O)N(C(C)(C)C(=O)Nc2cccc(Cl)n2)CO1 [B-2-01]
C (oval-leafed pondweed) weedkilling efficacy grade (oval-leafed pondweed [1]): 5 (weed kill ratio 90% or more, (practically complete withering)) | I (Italian ryegrass) weedkilling efficacy grade (Italian ryegrass [2]): 5 (weed kill ratio 90% or more, (practically complete withering)) | B (bulrush) weedkilling efficacy grade (bulrush [3]): 5 (weed kill ratio 90% or more, (practically complete withering)) | A (barnyard grass) weedkilling efficacy grade (barnyard grass [4]): 5 (weed kill ratio 90% or more, (practically complete withering)) | N (chickweed) weedkilling efficacy grade (chickweed [5]): 4 (weed kill ratio 70% or more, less than 90%) | M (fig-leafed goosefoot) weedkilling efficacy grade (fig-leafed goosefoot [6]): 4 (weed kill ratio 70% or more, less than 90%) | H (black-grass) weedkilling efficacy grade (black-grass [7]): 5 (weed kill ratio 90% or more, (practically complete withering)) | f (beet) effect on crop grade (beet [8]): 4 (weed kill ratio 70% or more, less than 90%) | P (birds-eye speedwell) weedkilling efficacy grade (birds-eye speedwell [9]): 0 (weed kill ratio 5% or less (practically no effect)) | A (barnyard grass) weedkilling efficacy grade (barnyard grass [10]): 5 (weed kill ratio 90% or more, (practically complete withering)) | N (chickweed) weedkilling efficacy grade (chickweed [11]): 3 (weed kill ratio 40% or more, less than 70%) | B (bulrush) weedkilling efficacy grade (bulrush [12]): 5 (weed kill ratio 90% or more, (practically complete withering)) | K (Indian mallow) weedkilling efficacy grade (Indian mallow [13]): 3 (weed kill ratio 40% or more, less than 70%) | O (catchweed) weedkilling efficacy grade (catchweed): 4 (weed kill ratio 70% or more, less than 90%) | H (black-grass) weedkilling efficacy grade (black-grass [14]): 5 (weed kill ratio 90% or more, (practically complete withering)) | E (green foxtail) weedkilling efficacy grade (green foxtail [15]): 5 (weed kill ratio 90% or more, (practically complete withering)) | D (crabgrass) weedkilling efficacy grade (crabgrass [16]): 5 (weed kill ratio 90% or more, (practically complete withering)) | E (green foxtail) weedkilling efficacy grade (green foxtail [17]): 5 (weed kill ratio 90% or more, (practically complete withering)) | c (corn) effect on crop grade (corn [18]): 0 (weed kill ratio 5% or less (practically no effect)) | D (crabgrass) weedkilling efficacy grade (crabgrass [19]): 5 (weed kill ratio 90% or more, (practically complete withering)) | I (Italian ryegrass) weedkilling efficacy grade (Italian ryegrass [20]): 5 (weed kill ratio 90% or more, (practically complete withering)) | e (wheat) effect on crop grade (wheat): 1 (weed kill ratio 5% or more, less than 20%) | b (directly sown rice) effect on crop grade (directly sown rice [21]): 5 (weed kill ratio 90% or more, (practically complete withering)) | f (beet) effect on crop grade (beet [22]): 4 (weed kill ratio 70% or more, less than 90%) | a (transplanted rice) effect on crop grade (transplanted rice): 2 (weed kill ratio 20% or more, less than 40%) | d (soybean) effect on crop grade (soybean [23]): 5 (weed kill ratio 90% or more, (practically complete withering)) | d (soybean) effect on crop grade (soybean [24]): 0 (weed kill ratio 5% or less (practically no effect)) | M (fig-leafed goosefoot) weedkilling efficacy grade (fig-leafed goosefoot [25]): 4 (weed kill ratio 70% or more, less than 90%) | b (directly sown rice) effect on crop grade (directly sown rice [26]): 5 (weed kill ratio 90% or more, (practically complete withering)) | C (oval-leafed pondweed) weedkilling efficacy grade (oval-leafed pondweed [27]): 5 (weed kill ratio 90% or more, (practically complete withering)) | c (corn) effect on crop grade (corn [28]): 0 (weed kill ratio 5% or less (practically no effect)) | L (redroot pigweed) weedkilling efficacy grade (redroot pigweed [29]): 5 (weed kill ratio 90% or more, (practically complete withering)) | P (birds-eye speedwell) weedkilling efficacy grade (birds-eye speedwell [30]): 5 (weed kill ratio 90% or more, (practically complete withering)) | K (Indian mallow) weedkilling efficacy grade (Indian mallow [31]): 3 (weed kill ratio 40% or more, less than 70%) | L (redroot pigweed) weedkilling efficacy grade (redroot pigweed [32]): 4 (weed kill ratio 70% or more, less than 90%)
